# Test results as given in article PMC5640672, “Molecular mechanism of synergy between the antimicrobial peptides PGLa and magainin 2” (Scientific Reports, 2017).
# No end group written: not given here.
# Assays:
# [1] = Fluorescence ANTS/DPX vesicle leakage assay in POPC/POPG (3:1); conditions: ANTS/DPX, POPC/POPG (3:1) 100 nm vesicles, P/L about 1:160 per peptide, mixtures 1:1, 10 mM HEPES pH 7.5, 155 mM NaCl, 30 °C, 600 s, % of Triton-X-100 leakage, fluorescence, mean of n = 3
# Description: The synergy was also investigated by a fluorescence ANTS/DPX leakage assay[24],[27],[30]. As described in the Methods section, leakage from POPC/POPG (3:1) vesicles was measured for 10 minutes after the addition of vesicles to a peptide solution. Leakage is expressed as percentage of the full leakage, which was obtained after addition of detergent. A synergy factor was defined to describe the enhancement of leakage of the mixture compared to the sum of the extent of leakage for each component. […] In general a synergy factor above 2 indicated synergy. […] In the leakage assay, this pore formation can be studied under more controlled conditions. Here we use two lipid compositions for the vesicles, which are mimicking bacterial membranes.
# (§1) Leakage of small unilamellar vesicles induced by the peptides was studied using a standard fluorescence assay.
# (§2) The appropriate lipids for each experiment were dissolved in CHCl3, together with 0.02 mol-% Rhodamine-PE (Rh-PE). […] This stock suspension was subjected to 10 freeze-thaw cycles and then frozen. Appropriate aliquots of the stock lipid suspension were unfrozen each day and extruded (41 times) through polycarbonate membranes with 100 nm pore size, and stored at room temperature overnight. The fluorophore and quencher outside the vesicles were removed by size exclusion chromatography using spin-columns (Pierce centrifuge column, 2 ml, Life Technologies GmbH, Darmstadt, Germany) filled with Sephacryl 100-HR (2 min, 1500 × g). For elution, a 10 mM HEPES buffer (pH 7.5) was used, containing 155 mM NaCl to balance the osmolarity. After extrusion and removal of the external dye and quencher, the lipid concentration usually decreases. Therefore, before each set of measurements a rhodamine spectrum was recorded to determine the actual concentration of lipids, which was referenced to a spectrum taken of vesicles made by sonification without any subsequent treatment.
# (§3) Fluorescence experiments were performed on a FluoroMax2 spectrofluorimeter (HORIBA Jobin Yvon, Unterhaching, Germany) equipped with a thermostated sample holder and magnetic stirrer, using an excitation wavelength of 355 nm, an emission wavelength of 508 nm, and slit widths of 5 nm. The peptide solutions were placed in elution buffer in a 1 cm standard cuvette at 30 °C. 100 s after the start of the measurement lipid vesicles were added, and the intensity of the fluorescence at 508 nm was recorded. The leakage was measured during 600 s after addition of vesicles, and the measurement was terminated after addition of Triton-X-100 (0.25% v/v), which dissolved the vesicles, and yielded 100% leakage. To determine the background signal of the vesicles themselves, several blanks were recorded per measurement set. From the leakage values of the peptides alone and of the mixture of two peptides a synergy factor SF was calculated:3 SF=L(A+B)/[L(A)+L(B)] […] Measurements were repeated three times and average values and standard deviations calculated for the leakage and the synergy factors. An average SF ≥ 2 was taken to indicate synergy.
# [2] = Fluorescence ANTS/DPX vesicle leakage assay in POPE/POPG/TOCL (72:23:5); conditions: POPE/POPG/TOCL (72:23:5) 100 nm vesicles, P/L ≈ 1:30, mixtures 1:1, 10 mM HEPES pH 7.5, 155 mM NaCl, 30 °C, 600 s, % of Triton-X-100 leakage, mean of n = 3
# Description: It could be argued that POPC/POPG (3:1) is not the most appropriate model system to describe a bacterial membrane, which rarely contains PC lipids. We therefore also performed leakage in another lipid system, POPE/POPG/TOCL (72:23:5), which is a good model of E. coli membranes[45],[69],[70]. […] For all of the other mutants discussed below, leakage was also studied both in POPC/POPG as well as POPE/POPG/TOCL, but since the results (synergy or no synergy) were in all cases the same, the latter data will not be presented in the text. All leakage data in POPE/POPG/TOCL (72:23:5) for charge mutants are summarized in Supplementary Table S4.
# as §1, §2
# as §3, with “SF=L(A+B)/[L(A)+L(B)] Here, L(A) is the leakage found with peptide A alone, L(B) is the leakage found with peptide B alone, and L(A + B) is the leakage found with the mixture of peptides A and B. In all cases the P/L was the same for both peptides, alone and in the mixture, so that in the mixture the total P/L was twice that of the individual peptide measurements.” for “SF=L(A+B)/[L(A)+L(B)]”
# [3] = Table S3 series (charge mutants)
# [4] = Table S4 series (charge mutants)
# [5] = Table S7 series (PGLa-to-MSI mutants)
# [6] = Table S8 series (PGLa-to-MSI mutants)
Substance,"Leakage, mean value [1, 5] [%]","Leakage, mean value [2, 6] [%]",also measured
"GIGKFLHSAKKFGKAFVGKIMNS-NH 2 (GIGKFLHSAKKFGKAFVGKIMNS-NH2) [MAG2-E19K-amide, amidated MAG2 E19K mutant]",–,–,"Leakage, mean value [1, 3]: 2.9%; Leakage, mean value [2, 4]: 2.9%"
"GIGKFLHSAKKFGKAFVGKIMNS-OH [MAG2-E19K, MAG2 charge mutant E19K]",–,–,"Leakage, mean value [1, 3]: 4.2%; Leakage, mean value [2, 4]: 1.6%"
"GMASKAGAIAGKIAKIAGKIA-NH2 [PtM-c1, PGLa to MSI-103 mutant, segment C replaced]",1.4,1.5,–
"GMASKAGKIAGKIAKVALKAL-NH2 (also: 15N-labeled Ala10) [PtM-A8K, PGLa single mutant A8K]",2.5,7.1,–
"GMASKIGAIAGKIAKVALKAL-NH2 (also: 15N-labeled Ala10) [PtM-A6I, PGLa single mutant A6I]",2.0,3.7,–
"KIAGKAGAIAGKIAKVALKAL-NH2 [PtM-a2, PGLa to MSI-103 mutant, three amino acids converted]",2.4,4.5,–
"KIAGKIGKIAGKIAKIAGKIA-NH2 [MtP-A7G, MSI-103 to PGLa single mutant A7G]",–,–,"Leakage, mean value ([1]; Table S11 series (MSI-to-PGLa mutants)): 1.4%; Leakage, mean value ([2]; Table S12 series (MSI-to-PGLa mutants)): 5.1%"
